{"source": "paper PMC5869686", "about": "(Journal of the American Chemical Society, 2018)", "biological_target": "succinate dehydrogenase (mitochondrial Sdh, complex II) (Bos taurus, UniProt P35720+Q3T189+Q95123)", "sequence (P35720 30-169)": "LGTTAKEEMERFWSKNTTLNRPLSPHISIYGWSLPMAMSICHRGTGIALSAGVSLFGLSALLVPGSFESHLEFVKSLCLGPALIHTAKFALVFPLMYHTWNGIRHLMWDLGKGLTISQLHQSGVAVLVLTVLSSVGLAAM", "sequence (Q3T189 29-280)": "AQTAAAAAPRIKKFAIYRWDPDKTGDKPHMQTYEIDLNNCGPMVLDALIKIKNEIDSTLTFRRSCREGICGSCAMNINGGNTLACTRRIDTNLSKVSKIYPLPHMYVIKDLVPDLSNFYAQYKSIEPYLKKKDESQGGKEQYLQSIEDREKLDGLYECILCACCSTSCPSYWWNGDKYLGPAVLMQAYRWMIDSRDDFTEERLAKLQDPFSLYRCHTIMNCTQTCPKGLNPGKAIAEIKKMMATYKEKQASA", "sequence (Q95123 56-158)": "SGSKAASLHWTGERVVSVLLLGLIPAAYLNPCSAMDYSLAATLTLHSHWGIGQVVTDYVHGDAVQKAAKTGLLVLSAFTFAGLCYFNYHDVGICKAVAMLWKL", "sequence (P31039 44-665 partner)": "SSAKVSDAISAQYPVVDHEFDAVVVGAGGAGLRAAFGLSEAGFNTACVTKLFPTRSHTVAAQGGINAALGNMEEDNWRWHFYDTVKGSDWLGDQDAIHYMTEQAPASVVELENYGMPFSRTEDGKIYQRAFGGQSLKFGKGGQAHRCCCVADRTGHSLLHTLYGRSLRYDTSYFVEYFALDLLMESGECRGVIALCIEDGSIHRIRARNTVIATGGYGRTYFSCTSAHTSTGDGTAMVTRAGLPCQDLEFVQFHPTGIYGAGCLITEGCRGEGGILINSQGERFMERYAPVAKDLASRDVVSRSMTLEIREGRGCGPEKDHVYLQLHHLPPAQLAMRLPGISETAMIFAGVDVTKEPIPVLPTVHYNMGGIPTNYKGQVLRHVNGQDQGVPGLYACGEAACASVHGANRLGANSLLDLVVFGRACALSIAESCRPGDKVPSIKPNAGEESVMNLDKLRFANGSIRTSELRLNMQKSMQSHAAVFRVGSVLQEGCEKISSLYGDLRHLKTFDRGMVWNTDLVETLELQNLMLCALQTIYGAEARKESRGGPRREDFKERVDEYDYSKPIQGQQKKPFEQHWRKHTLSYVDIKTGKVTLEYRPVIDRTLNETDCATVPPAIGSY", "assay": "colorimetric mitochondrial complex II activity assay", "assay_type": "biochemical"}
{"substance": "promysalin [(-)-1]", "values": [{"measurement": "IC50", "value": 2500, "unit": "nM"}]}
